Numbers after ± are expanded uncertainties.
Key:
[1] = Crystal; for molar entropy: 101.33 kPa, Small sample (50 mg) DSC
[2] = Molar enthalpy of transition or fusion; details: Crystal; DSC

[Ca+2].[O]=[Mo](=[O])([O-])[O-] [calcium molybdate(VI)]
[1]
Details | Normal melting temperature [°C] | molar entropy [J/K/mol]
298.15 K | – | 122 ± 7.8
310 K | – | 126.5 ± 8.1
315 K | – | 128.4 ± 8.2
320 K | – | 130.3 ± 8.3
325 K | – | 132.1 ± 8.4
330 K | – | 133.9 ± 8.5
335 K | – | 135.7 ± 8.6
340 K | – | 137.5 ± 8.8
345 K | – | 139.3 ± 8.9
350 K | – | 141 ± 9
355 K | – | 142.8 ± 9.1
360 K | – | 144.5 ± 9.2
365 K | – | 146.2 ± 9.3
370 K | – | 147.9 ± 9.4
375 K | – | 149.6 ± 9.5
380 K | – | 151.2 ± 9.6
385 K | – | 152.9 ± 9.7
390 K | – | 154.5 ± 9.8
395 K | – | 156.1 ± 9.9
400 K | – | 157.7 ± 10
410 K | – | 160.9 ± 10
420 K | – | 164 ± 10
430 K | – | 167.1 ± 11
440 K | – | 170.1 ± 11
450 K | – | 173.1 ± 11
460 K | – | 176 ± 11
470 K | – | 178.8 ± 11
480 K | – | 181.7 ± 12
490 K | – | 184.5 ± 12
500 K | – | 187.2 ± 12
510 K | – | 189.9 ± 12
520 K | – | 192.6 ± 12
530 K | – | 195.2 ± 12
540 K | – | 197.8 ± 13
550 K | – | 200.3 ± 13
560 K | – | 202.8 ± 13
570 K | – | 205.3 ± 13
580 K | – | 207.7 ± 13
590 K | – | 210.1 ± 13
600 K | – | 212.5 ± 14
620 K | – | 217.2 ± 14
640 K | – | 221.7 ± 14
660 K | – | 226.1 ± 14
680 K | – | 230.4 ± 15
700 K | – | 234.6 ± 15
720 K | – | 238.7 ± 15
740 K | – | 242.8 ± 16
760 K | – | 246.7 ± 16
766 K | – | 247.8 ± 16
DTA | 1477 ± 8 | –

Details | Molar enthalpy of transition or fusion [kJ/mol]
[2] | 102 ± 12
